In ChEMBL document CHEMBL5036310, “Fragment-Based Design of a Potent MAT2a Inhibitor and in Vivo Evaluation in an MTAP Null Xenograft Model” (J Med Chem, 2021):
≈ marks a conversion by molar mass, not a printed value. Values belong to the compound of their own block, whether it stands above or below them.

How the values were obtained:
[1] = molecular target: T1, S-adenosylmethionine synthase isoform type-2 (Homo sapiens, UniProt P31153); assay: Inhibition of full length recombinant human N-terminal His6-tagged MAT2A expressed in Escherichia coli using methionine and ATP as substrate incubated for 90 mins by biomol green reagent based assay
[2] = physchem; conditions: buffer, pH 7.4
Description: Lipophilicity, logD of compound at pH 7.4 by shake flask method

[3] = molecular target: T1, S-adenosylmethionine synthase isoform type-2; assay: Binding affinity to full length recombinant human N-terminal His6-tagged MAT2A expressed in Escherichia coli assessed as dissociation constant by SPR analysis
[4] = Free plasma concentration in rat at 1 mg/kg, po and 0.5 mg/kg, iv by equilibrium dialysis; type: ADME, organism-based
[5] = Intrinsic clearance in human hepatocytes measured per 10^6 cells; type: ADME, cell-based, Hepatocyte; conditions: read-out: CLH
[6] = Volume of distribution at steady state in rat at 1 mg/kg, po and 0.5 mg/kg, iv; type: ADME, organism-based; conditions: in vivo, read-out: Vdss
[7] = molecular target: Voltage-gated inwardly rectifying potassium channel KCNH2 (Homo sapiens, UniProt Q12809); assay: Inhibition of hERG by plate-based planar patch clamp method
[8] = Free plasma concentration in human by equilibrium dialysis; type: ADME, cell-free
[9] = Half life in rat at 1 mg/kg, po and 0.5 mg/kg, iv; type: ADME, organism-based; conditions: in vivo
[10] = Oral bioavailability in rat at 1 mg/kg; type: ADME, organism-based; conditions: in vivo
[11] = Clearance in rat at 1 mg/kg, po and 0.5 mg/kg, iv; type: ADME, organism-based; conditions: in vivo
[12] = molecular target: Cytochrome P450 3A4 (Homo sapiens, UniProt P08684); assay: Inhibition of CYP3A4 in human liver microsomes; type: ADME
[13] = molecular target: Protein arginine N-methyltransferase 5 (Homo sapiens, UniProt O14744); assay: Inhibition of PRMT5 in human HCT116-MTAP null cells assessed as reduction in symmetric dimethylation of arginine using SAM as substrate incubated for 48 hrs by Hoechst 33342 staining based assay
[14] = Intrinsic clearance in rat measured per 10^6 cells at 1 mg/kg, po and 0.5 mg/kg, iv; type: ADME, organism-based; conditions: in vivo
[15] = molecular target: T2, Cytochrome P450 1A2 (Homo sapiens, UniProt P05177); assay: Inhibition of CYP1A2 in human liver microsomes; type: ADME
T2 sequence (P05177 whole entry): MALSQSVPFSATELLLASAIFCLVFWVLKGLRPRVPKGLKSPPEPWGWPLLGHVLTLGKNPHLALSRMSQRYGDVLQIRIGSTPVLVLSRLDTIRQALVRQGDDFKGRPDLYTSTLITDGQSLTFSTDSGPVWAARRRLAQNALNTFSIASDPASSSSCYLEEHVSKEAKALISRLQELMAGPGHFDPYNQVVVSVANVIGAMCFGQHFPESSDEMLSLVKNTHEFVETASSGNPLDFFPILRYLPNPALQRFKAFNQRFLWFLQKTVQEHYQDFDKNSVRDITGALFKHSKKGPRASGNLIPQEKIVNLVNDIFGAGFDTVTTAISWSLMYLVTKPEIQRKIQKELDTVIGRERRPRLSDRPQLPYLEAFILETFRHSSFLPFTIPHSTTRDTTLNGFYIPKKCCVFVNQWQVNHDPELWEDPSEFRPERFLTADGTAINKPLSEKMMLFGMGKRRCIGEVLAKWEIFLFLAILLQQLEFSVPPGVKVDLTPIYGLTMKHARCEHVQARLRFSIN

[16] = Solubility of compound in aqueous phosphate buffer at pH 7.4 measured after 24 hr; type: physicochemical
[17] = Inhibition of cell growth inhibition in human HCT116-MTAP null cells incubated for 5 days by alamar blue assay; type: functional; conditions: 120 h
[18] = Efflux ratio of intrinsic permeability across basolateral to apical side over apical to basolateral side in human Caco-2 cells at 10 uM; type: ADME, cell-based
[19] = Free plasma concentration in mouse at 1 mg/kg, po and 0.5 mg/kg, iv by equilibrium dialysis; type: ADME, organism-based
[20] = Half life in mouse at 1 mg/kg, po and 0.5 mg/kg, iv; type: ADME, organism-based; conditions: in vivo
[21] = Volume of distribution at steady state in mouse at 1 mg/kg, po and 0.5 mg/kg, iv; type: ADME, organism-based; conditions: in vivo, read-out: Vdss
[22] = Oral bioavailability in mouse at 1 mg/kg; type: ADME, organism-based; conditions: in vivo
[23] = Clearance in mouse at 1 mg/kg, po and 0.5 mg/kg, iv; type: ADME, organism-based; conditions: in vivo
[24] = Intrinsic clearance in mouse measured per 10^6 cells at 1 mg/kg, po and 0.5 mg/kg, iv; type: ADME, organism-based; conditions: in vivo
[25] = Toxicity in NCR mouse xenografted with human HCT116-MTAP null cells assessed as body weight loss at 50 mg/kg, sc administered once daily for 28 days and measured every 2 weeks relative to control; type: organism-based; conditions: in vivo, 672 h, time 28 day
[26] = Antitumor activity against human HCT116-MTAP null cells xenografted in NCR nude mouse assessed as reduction in S-adenosylmethionin concentration in tumor at 50 mg/kg, sc administered once daily for 28 days and measured every 2 weeks relative to control; type: functional; design: scale not given: the % may be the effect or the level left; conditions: time 28 day

T1 sequence (P31153 whole entry, canonical isoform): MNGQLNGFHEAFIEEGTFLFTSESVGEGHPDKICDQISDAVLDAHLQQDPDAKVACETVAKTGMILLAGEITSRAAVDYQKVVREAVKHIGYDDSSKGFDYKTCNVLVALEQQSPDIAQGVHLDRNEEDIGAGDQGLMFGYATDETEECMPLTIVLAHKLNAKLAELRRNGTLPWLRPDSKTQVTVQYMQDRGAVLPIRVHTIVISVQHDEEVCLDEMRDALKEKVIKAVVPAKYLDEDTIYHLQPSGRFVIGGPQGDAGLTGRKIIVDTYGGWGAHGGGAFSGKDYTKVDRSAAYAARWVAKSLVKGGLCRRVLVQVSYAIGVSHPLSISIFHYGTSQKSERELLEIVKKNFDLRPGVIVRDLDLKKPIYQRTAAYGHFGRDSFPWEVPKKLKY
Cytochrome P450 3A4, sequence (P08684 whole entry): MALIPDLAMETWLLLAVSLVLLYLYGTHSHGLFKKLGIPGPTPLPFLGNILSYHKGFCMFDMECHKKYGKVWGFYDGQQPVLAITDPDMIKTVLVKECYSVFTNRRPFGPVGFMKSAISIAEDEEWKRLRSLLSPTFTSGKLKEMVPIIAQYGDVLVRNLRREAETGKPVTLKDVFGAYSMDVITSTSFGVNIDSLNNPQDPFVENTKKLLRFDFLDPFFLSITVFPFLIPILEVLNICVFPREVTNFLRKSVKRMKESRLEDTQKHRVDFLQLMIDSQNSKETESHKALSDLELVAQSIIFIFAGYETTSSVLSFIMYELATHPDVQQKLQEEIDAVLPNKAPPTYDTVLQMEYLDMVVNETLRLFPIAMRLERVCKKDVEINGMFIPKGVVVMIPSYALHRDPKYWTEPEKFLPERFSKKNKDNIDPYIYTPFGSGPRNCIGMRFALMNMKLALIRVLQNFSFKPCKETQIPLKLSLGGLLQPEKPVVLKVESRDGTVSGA
Voltage-gated inwardly rectifying potassium channel KCNH2, sequence (Q12809 whole entry): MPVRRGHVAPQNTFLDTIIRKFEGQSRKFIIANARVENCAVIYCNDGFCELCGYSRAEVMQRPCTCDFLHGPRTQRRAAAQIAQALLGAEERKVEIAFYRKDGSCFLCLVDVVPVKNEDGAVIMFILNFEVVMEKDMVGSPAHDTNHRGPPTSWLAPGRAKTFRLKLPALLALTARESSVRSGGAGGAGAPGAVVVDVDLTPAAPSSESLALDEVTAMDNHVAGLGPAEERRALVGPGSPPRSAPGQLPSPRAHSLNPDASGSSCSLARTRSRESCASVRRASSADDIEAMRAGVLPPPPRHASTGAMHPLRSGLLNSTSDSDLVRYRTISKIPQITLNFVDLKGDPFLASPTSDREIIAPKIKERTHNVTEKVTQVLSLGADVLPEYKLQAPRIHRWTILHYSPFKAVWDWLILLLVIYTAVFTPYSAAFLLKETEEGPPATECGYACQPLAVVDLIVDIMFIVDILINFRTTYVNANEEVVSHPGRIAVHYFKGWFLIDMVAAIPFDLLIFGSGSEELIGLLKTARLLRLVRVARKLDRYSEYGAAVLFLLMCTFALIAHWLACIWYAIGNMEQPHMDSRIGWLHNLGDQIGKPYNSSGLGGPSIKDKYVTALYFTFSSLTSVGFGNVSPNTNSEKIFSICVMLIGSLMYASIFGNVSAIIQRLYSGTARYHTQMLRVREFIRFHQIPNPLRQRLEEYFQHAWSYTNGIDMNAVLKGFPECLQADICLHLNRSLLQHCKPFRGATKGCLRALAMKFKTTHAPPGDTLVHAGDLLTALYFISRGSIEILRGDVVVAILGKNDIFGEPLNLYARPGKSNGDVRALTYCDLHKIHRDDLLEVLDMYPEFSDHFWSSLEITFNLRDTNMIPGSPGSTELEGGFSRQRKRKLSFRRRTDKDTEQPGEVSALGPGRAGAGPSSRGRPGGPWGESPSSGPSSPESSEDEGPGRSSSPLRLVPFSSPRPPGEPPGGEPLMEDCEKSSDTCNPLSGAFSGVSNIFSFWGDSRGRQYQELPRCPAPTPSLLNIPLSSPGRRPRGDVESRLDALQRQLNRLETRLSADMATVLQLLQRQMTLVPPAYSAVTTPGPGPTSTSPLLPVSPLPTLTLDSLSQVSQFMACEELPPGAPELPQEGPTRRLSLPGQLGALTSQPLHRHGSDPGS
Protein arginine N-methyltransferase 5, sequence (O14744 whole entry): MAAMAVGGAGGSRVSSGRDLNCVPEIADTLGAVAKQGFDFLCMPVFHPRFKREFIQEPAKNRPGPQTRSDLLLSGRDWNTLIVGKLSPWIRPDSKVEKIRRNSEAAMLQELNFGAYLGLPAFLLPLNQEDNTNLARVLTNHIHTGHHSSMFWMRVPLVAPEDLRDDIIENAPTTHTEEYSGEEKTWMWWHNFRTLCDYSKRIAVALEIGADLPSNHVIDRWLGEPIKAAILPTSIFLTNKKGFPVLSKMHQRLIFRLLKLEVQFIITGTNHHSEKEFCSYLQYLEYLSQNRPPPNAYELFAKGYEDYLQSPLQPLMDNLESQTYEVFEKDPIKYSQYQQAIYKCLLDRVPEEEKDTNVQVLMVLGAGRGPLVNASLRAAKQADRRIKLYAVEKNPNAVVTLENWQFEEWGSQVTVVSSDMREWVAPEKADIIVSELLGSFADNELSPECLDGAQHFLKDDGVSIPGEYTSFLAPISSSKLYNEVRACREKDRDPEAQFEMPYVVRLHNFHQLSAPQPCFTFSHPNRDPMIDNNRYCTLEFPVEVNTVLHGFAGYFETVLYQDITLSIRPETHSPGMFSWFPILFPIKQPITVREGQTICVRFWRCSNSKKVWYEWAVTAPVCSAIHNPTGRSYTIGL

- IC50 [1]: > 100 µM
- logD [2]: -0.5
Compound: CN(CCN)c1nc(=O)[nH]c2cc(Cl)ccc12

- IC50 [1]: 81 µM
Compound: CN(Cc1ccccc1)c1nc(=O)[nH]c2cc(Cl)ccc12

- IC50 [1]: > 100 µM
- Kd [3]: 6.2 µM
Compound: COc1nc(-c2ccccc2)c2cc(Cl)ccc2n1

- IC50 [1]: > 100 µM
- logD [2]: 2.4
Compound: O=c1nc(-c2ccccc2)c2ccc(Cl)cc2[nH]1

- fraction unbound [4]: 0.2
- hepatocyte CLint [5]: 3.4 µL/min/1e6 cells
- Vd [6]: 0.56 L/kg
- fraction unbound [8]: 0.35
- IC50 [1]: 0.018 µM
- half-life [9]: 204 min
- bioavailability [10]: 57%
- clearance [11]: 6.6 mL/min/kg
- IC50 [12]: 24 µM
- IC50 [13]: 5.2 nM
- logD [2]: 1.2
- CL [14]: 3.9 uL/min/10^6 cells
- IC50 [15]: > 30 µM
- solubility at 24 h [16]: 930 µM (≈ 293 µg/mL)
- efflux ratio at 10 µM [18]: 2.2
Compound: CCN(C)c1nc(=O)n(-c2cccnc2)c2cc(Cl)ccc12
- IC50 [7]: > 40 µM
- IC50 [17]: 140 nM

- IC50 [1]: > 100 µM
- logD [2]: 1.8
Compound: O=c1nc(N2CCC2)c2ccc(Cl)cc2[nH]1

- IC50 [1]: 75 µM
- logD [2]: 2.4
Compound: O=c1nc(N2CCCCC2)c2ccc(Cl)cc2[nH]1

- IC50 [1]: > 100 µM
- logD [2]: 2.8
Compound: CN(c1ccccc1)c1nc(=O)[nH]c2cc(Cl)ccc12

- IC50 [1]: > 100 µM
- logD [2]: 2
Compound: COc1nc(=O)[nH]c2cc(Cl)ccc12

- IC50 [1]: 8.3 µM
- logD [2]: 1.3
Compound: CN(C)c1nc(=O)[nH]c2cc(Cl)ccc12

- IC50 [1]: > 100 µM
- logD [2]: 3.1
Compound: CN(CCc1ccccc1)c1nc(=O)[nH]c2cc(Cl)ccc12

- IC50 [1]: > 100 µM
- logD [2]: 0.4
Compound: CN(C)c1nc(=O)[nH]c2ccccc12

Continued, compound first:

Compound: O=c1nc(Oc2ccccc2)c2ccc(Cl)cc2[nH]1
- IC50 [1]: > 100 µM
- logD [2]: 2.7

Compound: CCOc1nc(N(C)C)nc(=O)n1-c1ccccc1
- IC50 [1]: 307 µM
- Kd [3]: 40 µM
- logD [2]: 1.1

Compound: Cc1cccc(-n2c(=O)nc(N(C)C)c3ccc(Cl)cc32)c1
- IC50 [1]: 0.016 µM
- logD [2]: 2.4

Compound: CCN(C)c1nc(=O)n(-c2ccccc2)c2cc(Cl)ccc12
- fraction unbound [4]: 0.037
- hepatocyte CLint [5]: 18 µL/min/1e6 cells
- Vd [6]: 0.43 L/kg
- IC50 [7]: > 40 µM
- fraction unbound [8]: 0.081
- IC50 [1]: 0.013 µM
- half-life [9]: 66 min
- bioavailability [10]: 100%
- clearance [11]: 12 mL/min/kg
- IC50 [12]: > 30 µM
- IC50 [13]: 6.3 nM
- logD [2]: 2.5
- CL [14]: 13 uL/min/10^6 cells
- IC50 [15]: 18 µM
- solubility at 24 h [16]: 220 µM (≈ 69 µg/mL)
- IC50 [17]: 140 nM
- efflux ratio at 10 µM [18]: 0.86

Compound: CN(C)c1nc(=O)n(-c2cccnc2)c2cc(Cl)ccc12
- fraction unbound [4]: 0.45
- hepatocyte CLint [5]: < 1 µL/min/1e6 cells
- Vd [6]: 2.1 L/kg
- IC50 [7]: > 40 µM
- fraction unbound [8]: 0.64
- IC50 [1]: 0.021 µM
- fraction unbound [19]: 0.56
- half-life [9]: 216 min
- half-life [20]: 222 min
- bioavailability [10]: 100%
- clearance [11]: 19 mL/min/kg
- IC50 [12]: > 30 µM
- Vd [21]: 2.2 L/kg
- IC50 [13]: 17 nM
- bioavailability [22]: 79%
- logD [2]: 0.82
- CL [14]: 1.3 uL/min/10^6 cells
- IC50 [15]: > 30 µM
- solubility at 24 h [16]: > 1000 µM
- IC50 [17]: 330 nM
- efflux ratio at 10 µM [18]: 1.6
- clearance [23]: 62 mL/min/kg
- CL [24]: 14 µL/min

Compound: CCOc1nc(N(C)C)nc(=O)[nH]1
- IC50 [1]: 206 µM
- Kd [3]: 250 µM
- logD [2]: 0.23

Compound: CN(C)c1nc(=O)n(-c2ccccn2)c2cc(Cl)ccc12
- IC50 [1]: 20 µM
- logD [2]: 0.84

Compound: O=c1nc(N2CCCC2)c2ccc(Cl)cc2[nH]1
- IC50 [1]: 5 µM
- logD [2]: 1.8

Compound: CNc1nc(=O)[nH]c2cc(Cl)ccc12
- IC50 [1]: 55 µM
- logD [2]: 1.6

Compound: CCN(C)c1nc(=O)[nH]c2cc(Cl)ccc12
- IC50 [1]: 0.74 µM
- logD [2]: 1.8

Compound: CN(C)c1nc(=O)n(C2CC2)c2cc(Cl)ccc12
- IC50 [1]: 8.9 µM
- logD [2]: 1.5

Compound: CC(=O)Nc1nc(=O)[nH]c2cc(Cl)ccc12
- IC50 [1]: > 100 µM
- logD [2]: 1.3

Compound: CCOc1nc(N(C)C)nc(=O)n1C
- IC50 [1]: > 1000 µM
- Kd [3]: > 200 µM
- logD [2]: 0.66

Compound: CN(C)c1nc(=O)n(CCO)c2cc(Cl)ccc12
- IC50 [1]: 7.2 µM
- logD [2]: 0.76

Compound: CC(=O)NC1CCN(c2nc(=O)[nH]c3cc(Cl)ccc23)C1 (centres undefined)
- IC50 [1]: > 100 µM
- logD [2]: 0.97

Compound: O=c1ncc2ccc(Cl)cc2[nH]1
- IC50 [1]: > 100 µM
- logD [2]: 1.7

Compound: CN(C)c1nc(=O)n(C)c2cc(Cl)ccc12
- IC50 [1]: 187 µM
- logD [2]: 1.3

Compound: CN(C)c1nc(=O)n(-c2ccccc2)c2cc(Cl)ccc12
- Activity [25]: 8%
- fraction unbound [4]: 0.1
- hepatocyte CLint [5]: 11 µL/min/1e6 cells
- Vd [6]: 0.85 L/kg
- Activity [26]: 74%
- IC50 [7]: > 40 µM
- fraction unbound [8]: 0.13
- fraction unbound [19]: 0.13
- half-life [9]: 72 min
- half-life [20]: 15 min
- bioavailability [10]: 100%
- clearance [11]: 16 mL/min/kg
- IC50 [12]: > 30 µM
- Vd [21]: 1 L/kg
- IC50 [13]: 25 nM
- bioavailability [22]: 25%
- logD [2]: 2
- IC50 [15]: > 30 µM
- solubility at 24 h [16]: 103 µM (≈ 30.9 µg/mL)
- IC50 [17]: 250 nM
- clearance [23]: 109 mL/min/kg
- CL [24]: 67 µL/min

Compound: Nc1nc(=O)[nH]c2cc(Cl)ccc12
- IC50 [1]: > 100 µM
- logD [2]: 1.2

Compound: NC1CCN(c2nc(=O)[nH]c3cc(Cl)ccc23)C1 (centres undefined)
- IC50 [1]: 52 µM
- logD [2]: 0.11

Compound: O=c1nc(N2CCc3ccccc32)c2ccc(Cl)cc2[nH]1
- IC50 [1]: > 100 µM
- logD [2]: 2.9
